Data set [1] relates to HeLa cells. The data set is described as follows: Telomere length (flow cytometry, PNA probe), cell cycle distribution (PI) and apoptosis in HeLa cells. Format: cell-based, human. The method, then:
(§1) The ALT cell lines were treated with therapeutic concentrations of AZT, to determine if slippage telomeric DNA synthesis could be inhibited by AZT-TP, and thereby induce telomere shortening. Telomere length in AZT treated and untreated cell lines was measured by flow cytometry with a telomere specific peptide nucleic acid (PNA) probe. To determine cell cycle distribution, cells were stained with propidium iodide (PI).
(§2) The origin of the cell lines are uterine cervix (HeLa) and epithelial ovarian (NuTu-19). Cells were cultured in D-MEM media supplemented with 10% fetal calf serum at 37° C. in a humidified atmosphere of 5% CO2. For treatment of the cells with GCV, the media was supplemented with 1.5 μM of GCV (Cymevene, Hoffman-La Roche). For treatment of the cells with ACV, the media was supplemented with 3 μM of Acyclovir (Acyclovir, TEVA Pharm. Ind. Id. Israel).
(§3) Real time TRAP assay was performed as described (Wege et al., SYBR Green real-time telomeric repeat amplification protocol for the rapid quantification of telomerase activity. Nucleic Acids Res. 2003; 31(2):E3-3). For telomere length measurement by flow cytometry, cells were stained with telomere specific FITC conjugated (C3TA2)3 PNA (Applied Biosystems) probe and contrastained with 0.06 μg/ml PI as described by Rufer, N., Dragowska, W., Thornbury G., Roosnek, E., Lansdorp P. M. Telomere length dynamics in human lymphocyte subpopulations […]. Nat. Biotechnol. 16, 743-747 (1998)).
(§4) Both telomerase positive (Hela) telomerase negative (U-2 OS) cell lines were used. Appropriate assays were performed to detect and confirm telomerase/L1RT specific activity in these cells.
(§5) The U-2 OS (osteosarcoma) and HeLa (uterine cervix) cell lines used in this study were obtained from American Type Culture Collection (Rockville, Md.). Cells were cultured in D-MEM media supplemented with 10% fetal calf serum at 37° C. in a humidified atmosphere of 5% CO2. For treatment of the cells with ACV, the media was supplemented with 3 μM of acyclovir (acyclovir, TEVA Pharm. Ind. Ltd, Israel). For treatment of the cells with GCV, the media was supplemented with 1.5 μM of GCV (Cymevene, Hoffman-La Roche). For treatment of the cells with PCV, the media was supplemented with 1.5 μM of PCV (penciclovir, Merck & Co.).
(§6) Telomere length in SN 1 or SN 2 treated and untreated cell lines was measured by flow cytometry with a telomere—specific peptide nucleic acid PNA) probe. To determine cell cycle distribution, cells were stained with propidium iodide (PI).
(§7) The U-2 OS (osteosarcoma) and Hela (uterine cervix) cell lines used in this study were obtained from American Type Culture Collection (Rockville, Md.). Cells were cultured in D-MEM media supplemented with 10% fetal calf serum at 37° C. in a humidified atmosphere of 5% CO2. For treatment of the cells with SN 1 or SN 2, the media was supplemented with 1.5 μM of SN1 or SN2.
(§8) For telomere length measurement by flow cytometry, cells were stained with telomere specific FITC conjugated (C3TA2)3 PNA (Applied Biosystems) probe and contra-stained with 0.06 μg/ml PI as described by Rufer, N., Dragowska, W., Thornbury G., Roosnek, E., Lansdorp P. M. Telomere length dynamics in human lymphocyte subpopulations […]. Nat. Biotechnol. 16, 743-747 (1998)).
A general note: Flow cytometry measures light scatter and fluorescence of single cells or particles in a stream.

A short description of data set [2]: MTT-microtiter plate tetrazolium cytotoxicity assay. In kind it is cell-based. The note with it: dog, MDCK (ATCC) cells; continuous exposure for 2 days; read-out: IC50 cytotoxic doses. How it is done:
(a) Cytotoxcity Assay: The cytotoxic effects of compounds of the invention was determined using pharmacological models that are well known to the art, i.e., MTT-microtiter plate tetrazolium cytotoxicity Assay. Specifically, cytotoxicity assays were performed using the MIT assay procedure described in Mosmann, 1983, Rapid calorimetric assay for cellular growth and survival: application to proliferation and cytotoxicity assays, J Immunol Methods, 65:55-63. Briefly, the assay was performed by using 96-well microtiter plates plated at 10^4 MDCK (ATCC) cells/well, in […] of growth medium.
For determination of IC50 cells were exposed continuously for 2 days to varying concentrations of SN1, SN2, SN3, SN4 and valine ester of SN1. MIT assays were performed at the end of the 2nd day. […] All assays were performed at least 2 times in 3 replicate wells.

Data set [3] has as its system U-2 OS cells. The data set is described as follows: Telomere length (flow cytometry, PNA probe), cell cycle distribution (PI), apoptosis and TRAP status in U-2 OS cells. In kind it is cell-based, human. How it is done:
as §1
Rate of DNA synthesis was determined by incorporation of 5-bromodeoxyuridine (BdU). […] It is important to note that changes in cell cycle distribution, DNA synthesis and telomere length were rapid and could be detected after only 10 days of AZT treatment.
Telomere length in untreated and GCV treated cells was measured by flow cytometry with a telomere-specific PNA probe as described above.
To determine cell cycle distribution, cells were stained with propidium iodide (PI).
as §4, §5, §3
(a) In vitro arrays: U-2 OS cells were incubated with 0.2 μM of AZT for 22 days. Actively growing clones were analyzed by flow-FISH with telomere specific PNA probe, and in real time TRAP assay using HeLa cells as positive control. Isolated actively growing clones were different from parental cells in DNA content and telomere length.
as §6, §7, §8

The test system of a further data set is NuTu-19 cells. The data set is described as follows: Telomere length (flow cytometry, PNA probe), cell cycle distribution (PI) and apoptosis in NuTu-19 cells. Format: cell-based. The conditions noted are these: GCV 1.5 μM or ACV 3.0 μM, 14 days (Example 2b). How it is done: as §2, §3
The test system of data set [4] is U-2 OS cells. The conditions noted are these: therapeutic concentrations, 14 days; reported in WO 2005/069880; cited from earlier work.
The test system of data set [5] is Saos-2 osteosarcoma cells. The conditions noted are these: therapeutic concentrations, 14 days; reported in WO 2005/069880; cited from earlier work.
Data set [6] relates to HeLa cells. Format: in vivo. The note with it: Valcyte in drinking water (1 mg/ml) from day 0. The method, then: For in vivo assay, appropriate host, e.g., nude (nu/nu) mice of about 5-7 weeks old are obtained and maintained in pathogen-free conditions. Approximately, 1×10^6 HeLa cells (and/or U-2 OS cells) contained in 200 μl of serum-free media are delivered to all animals, briefly anaesthetize with Metofane, by subcutaneous (s.c.) injection in flank. Then the mice are divided into experimental group and control group. Appropriate concentrations of compounds of the formulas (I) to (VI), ACV, PCV and/or GCV are used for tumor growth progression or regression assays.
In one embodiment, impairment of s.c. tumor growth or time to progression rather than decrease in size of an established tumor (regression) is assessed. In this embodiment, starting from the day zero, mice in the experimental group receive GCV in drinking water ad libitum. Concentration of GCV in water can be 2 mg/ml. Fresh solution of GCV is supplied every 3 days. Mice in the control group receive only drinking water. Tumors are measured every 2-3 days. Mice are sacrificed when tumors exceed 1 cm^3. Tumor volume is calculated with formula 4/3πr^3, where r is the radius of the tumor.
Experimental group received valganciclovir in drinking water from day 0. Human cancer HeLa cell culture was purchased from ATCC. In all, 12 CD1/-nu and 12 NMRiI/-nu nude mice were purchased from Charles River Laboratories, Charles River Deutschland GmbH. These nude mice were injected s.c. with 3×10^5 Hela cells. Mice in the experimental groups (6 mice per strain) were exposed to Valcyte® (val-ganciclovir) in drinking water (1 mg/ml) from day 0.
(a) In vivo assays using Valganciclovir and zidovudine (AZT) combination: Human cancer HeLa cell culture was purchased from ATCC. A total of 24 CD1/-nu nude mice were purchased from Charles River laboratories, Charles River Deutschland GmbH. These mice were injected s.c. with 1×10^5 HeLa cells. The tumor volumes were determined by measurement of maximal and minimal diameters of the tumor. The calculations were conducted using the formula V=4/3 πRmax×Rmin^2, where Rmax−½ of maximal diameter of the tumor, and Rmin−½ of minimal diameter of the tumor. nude mice were injected s.c. with 1×10^5 Hela cells.
Of the 12 treated mice, after 20 days of double cocktail treatment, six mice were administered with a triple cocktail (Valcyte®+Retrovir®+ddI at the dose of 1 mg/ml each in drinking water for a further period 21 days (see Example 7 below) and only six mice continued to receive the double cocktail for another 21 days at which time tumor measurements were taken for all mice injected with HeLa cells. Of the remaining 12 mice injected with HeLa cells but untreated with any cocktail or anticancer agent thus far, six were maintained as controls for the rest of the duration of the experiment. The other six were treated with Xeloda® 67 days after the injection of HeLa cells (see Example 7 below).
As mentioned in Example 5 above, a total of six mice, after 20 days of double cocktail treatment, were administered with a triple cocktail (Valcyte®+Retrovir®+ddI at the dose of 1 mg/ml each in drinking water) for a further period 21 days. After 14 days of triple cocktail treatment, Xeloda® at a concentration 1 mg/ml was added to the triple cocktail. Six mice previously untreated with any drug for 67 days after the injection of HeLa cells were treated with Xeloda® at a concentration 1 mg/ml in drinking water. Tumor measurements were taken in all mice 75 days following the injection of HeLa cells.

Where [7] appears, read: ACV 3.0, GCV 1.5 μM or PCV 1.5 μM, 10 and 14 days (Example 2c).
Setting [8] is: GCV 1.5 μM or ACV 3.0 μM, 14 days (Example 2b).

These results are taken from US20090203636A1, “Prevention and Treatment of Cancer and Other Diseases” (priority 2006, published 2009).

Broadly, the IC50 is the point on the concentration scale where inhibition reaches its midpoint. In general, melting point refers to the temperature, or range, at which the solid turns liquid.

Each structure is given as a SMILES string. Values after ≈ are worked out from the molar mass of the structure shown. Structures can show the parent of a compound that is named as a salt.

Regarding `Cc1cn(COCCO)c(=O)[nH]c1=O` [SN1, 1-[(2-Hydroxyethoxy)methyl]-5-methyluracil], in the data set on HeLa cells [1] (SN 1 or SN 2 1.5 μM, 14 days), the “telomere length, apoptosis and cell cycle distribution” value was “telomere shortening, massive apoptosis and G2 arrest”. Further, in data set [2], the IC50 at 2 days was determined as 750 µg/mL (≈ 3.75 mM).
In the case of `Nc1nc2c(ncn2CCC(CO)CO)c(=O)[nH]1` [PCV], the “telomere length, apoptosis and cell cycle distribution” value in the data set with HeLa cells [1] (setting [7]) was “telomere shortening, massive apoptosis and G2 arrest”; with U-2 OS cells [3] (setting [7]), “telomere shortening, massive apoptosis and G2 arrest”.
In turn, `Cc1cn(COC(CO)CO)c(=O)[nH]c1=O` [SN3, 1-[(1,3-Dihydroxy-2-propoxy)methyl]-5-methyluracil] showed a melting point of 156 to 157 °C. Further, the IC50 at 2 days in data set [2] is more than 1000 µg/mL.
`Nc1nc(O)c2ncn(COC(CO)CO)c2n1` [GCV]: the “telomere length, apoptosis and cell cycle distribution” value in the data set on NuTu-19 cells is “telomere shortening, massive apoptosis and G2 arrest”; with HeLa cells [1] (setting [7]) it was “telomere shortening, massive apoptosis and G2 arrest”; in the data set with HeLa cells [1] (setting [8]), “telomere shortening, massive apoptosis and G2 arrest”; in the data set with U-2 OS cells [3] (setting [7]) it was “telomere shortening, massive apoptosis and G2 arrest”; with U-2 OS cells [3] (GCV 0.3 μg/ml, 14 days) it was “telomere shortening, massive apoptosis programmed cell death) and G2 arrest”. The “telomere length, cell cycle and apoptosis” value in the data set on U-2 OS cells [4] is “telomere shortening, G2 arrest and massive apoptosis”; in data set [5], “telomere shortening, G2 arrest and massive apoptosis”.
`Nc1nc2c(ncn2COCCO)c(=O)[nH]1` [ACV, 9-[2(hydromethoxy)-methyl]guanine]: the “telomere length, apoptosis and cell cycle distribution” value is “telomere shortening, massive apoptosis and G2 arrest” with NuTu-19 cells; “telomere shortening, massive apoptosis and G2 arrest” in the data set with HeLa cells [1] (setting [7]); “telomere shortening, massive apoptosis and G2 arrest” in the data set with HeLa cells [1] (setting [8]); “telomere shortening, massive apoptosis and G2 arrest” in the data set with U-2 OS cells [3] (setting [7]).
For `CC(C)[C@H](N)C(=O)OCC(CO)OCn1cnc2c(=O)nc(N)[nH]c21` (stereo partly drawn) [Valcyte®], in the data set on HeLa cells [6], the “tumor growth in the other treated mice” value is “slowing of tumor growth”. In the data set on HeLa cells [6] (about 14 days), the tumor development result was “All mice in control and treated groups had developed tumors”. Also, the “mice in which the tumor regressed and was eliminated by monotherapy” value in the data set on HeLa cells [6] (by about day 30) is recorded as “one”.
As to `Nc1ncnc2c1ncn2COCCO` [SN2, 9-[(2-Hydroxyethoxy)methyl]-adenine], the “telomere length, apoptosis and cell cycle distribution” value in the data set on HeLa cells [1] (SN 1 or SN 2 1.5 μM, 14 days) was “telomere shortening, massive apoptosis and G2 arrest”. Besides, the IC50 at 2 days in data set [2] was 750 µg/mL (≈ 3.58 mM).
Turning to `Cc1cn(COCCOC(=O)[C@@H](N)C(C)C)c(=O)[nH]c1=O` [VSN1, 2-[(5-Methyluracil-1-yl)methoxy]-ethyl L-valinate hydrochloride monohydrate], in data set [2], the IC50 at 2 days is more than 1000 µg/mL.
Still for that read-out and setting: for `Nc1ncnc2c1ncn2COC(CO)CO` [SN4, 9-[(1,3-Dihydroxy-2-propoxy)methyl]-adenine] the value was more than 1000 µg/mL.
